Measurements reported in patent publication US12486290B2, “Isoindolinone and indazole compounds for the degradation of EGFR” (C4 THERAPEUTICS, INC., priority 2019, dated 2025).

The molecules below were run against T1, EGFR T790M/L858R (NCI-H1975 cells) (Homo sapiens, UniProt P00533, L858R/T790M) (assay: EGFR (L858R) degradation analysis, Total EGFR (L858R) HTRF, NCI-H1975 cells). Settings: 6 hours.
T1 construct: NCI-H1975 (harboring EGFR heterozygous T790M/L858R mutations); host or cells: NCI-H1975
Type: cell-based
From the text: NCI-H1975 (harboring EGFR heterozygous T790M/L858R mutations) and NCI-H3255 (harboring EGFR heterozygous L858R mutation) were purchased from ATCC and NCI, respectively. NCI-H1975+CS (harboring EGFR heterozygous T/790M/L858R/C797S mutations) was generated using CRISPR technology to introduce the additional C797S mutation by Horizon Discovery. RPMI 1640 no-phenol red medium and fetal bovine serum (FBS) were purchased from Gibco (Grand Island, NY, USA). Cell culture flasks and 384-well microplates were acquired from VWR (Radnor, PA, USA). Total EGFR (L858R) HTRF assay kits were purchased from Cisbio (Bedford, MA, USA).
Degradation of EGFR protein containing L858R mutation was determined based on quantification of FRET signal using Total EGFR (L858R) HTRF assay kit. Test compounds were added to the 384-well plate from a top concentration of 10 μM with 11 points, half log titration in duplicates. NCI-H1975, NCI-H1975+CS or NCI-H3255 cells were added into 384-well plates at a cell density of 10000, 10000 or 1000 cells per well, respectively. The plates were kept at 37° C. with 5% CO2 for 6 hours. Cells treated in the absence of the test compound were the negative control. Positive control was set by wells containing all reagents but no cells. FRET signal was acquired on EnVision™ Multilabel Reader (PerkinElmer, Santa Clara, CA, USA).

T1 sequence (P00533 25-1210 T790M/L858R): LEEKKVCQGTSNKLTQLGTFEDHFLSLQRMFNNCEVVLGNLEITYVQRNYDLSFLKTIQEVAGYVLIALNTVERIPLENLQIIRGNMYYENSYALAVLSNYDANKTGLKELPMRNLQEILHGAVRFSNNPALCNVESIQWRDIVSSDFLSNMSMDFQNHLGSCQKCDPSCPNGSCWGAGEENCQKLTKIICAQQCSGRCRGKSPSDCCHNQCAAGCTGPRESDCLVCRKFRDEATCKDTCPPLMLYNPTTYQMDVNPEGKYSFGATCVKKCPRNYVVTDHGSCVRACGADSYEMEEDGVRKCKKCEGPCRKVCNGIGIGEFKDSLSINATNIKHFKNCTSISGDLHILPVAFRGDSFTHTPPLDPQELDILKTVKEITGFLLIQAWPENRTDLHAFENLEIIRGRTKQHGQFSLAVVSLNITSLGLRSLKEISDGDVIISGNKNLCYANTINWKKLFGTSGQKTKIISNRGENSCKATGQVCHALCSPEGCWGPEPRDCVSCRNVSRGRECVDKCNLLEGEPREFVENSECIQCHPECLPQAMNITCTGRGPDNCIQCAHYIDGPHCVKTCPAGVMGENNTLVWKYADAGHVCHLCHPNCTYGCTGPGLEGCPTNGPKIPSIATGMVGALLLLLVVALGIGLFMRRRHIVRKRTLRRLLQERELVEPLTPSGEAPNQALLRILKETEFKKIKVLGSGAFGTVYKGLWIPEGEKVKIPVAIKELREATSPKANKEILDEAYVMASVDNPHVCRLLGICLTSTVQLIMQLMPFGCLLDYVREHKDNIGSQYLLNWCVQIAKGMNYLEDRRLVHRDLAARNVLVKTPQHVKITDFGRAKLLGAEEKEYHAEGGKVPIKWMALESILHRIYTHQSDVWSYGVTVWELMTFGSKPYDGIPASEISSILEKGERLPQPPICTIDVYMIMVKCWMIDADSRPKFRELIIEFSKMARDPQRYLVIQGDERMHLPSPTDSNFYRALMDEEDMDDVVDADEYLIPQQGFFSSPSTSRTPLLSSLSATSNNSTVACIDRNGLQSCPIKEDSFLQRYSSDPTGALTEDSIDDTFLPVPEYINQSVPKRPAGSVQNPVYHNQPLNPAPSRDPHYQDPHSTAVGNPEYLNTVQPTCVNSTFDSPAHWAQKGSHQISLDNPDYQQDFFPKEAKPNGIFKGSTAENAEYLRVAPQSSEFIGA

| Structure (SMILES) | DC50 |
| --- | --- |
| O=C1CCC(Nc2ccc(C3CCC(CC(=O)N4CCN(c5ccc(-c6cc(F)c7c(c6)C(=O)N(C(C(=O)Nc6nccs6)c6ncn8c6CCC8)C7)cc5)CC4)CC3)cc2)C(=O)N1 (racemic) [Compound 9, (2RS)-2-(6,7-Dihydro-5H-pyrrolo[1,2-c]imidazol-1-yl)-2-[4-fluoro-1-oxo-6-[4-[4-[2-[4-[4-[[(3RS)-2,6-dioxo-3-piperidyl]amino]phenyl]cyclohexyl]acetyl]piperazin-1-yl]phenyl]isoindolin-2-yl]-N-thiazol-2-yl-acetamide] | 30 nM |
| O=C1CCC(Nc2ccc(C3CCN(CC(=O)N4CCN(c5ccc(-c6cc(Cl)c7cn(C(C(=O)Nc8nccs8)c8ncn9c8CCC9)nc7c6Cl)cc5)CC4)CC3)cc2)C(=O)N1 (racemic) [Compound 61, (2RS)-2-[4,7-Dichloro-6-[4-[4-[2-[4-[4-[[(3RS)-2,6-dioxo-3-piperidyl]amino]phenyl]-1-piperidyl]acetyl]piperazin-1-yl]phenyl]indazol-2-yl]-2-(6,7-dihydro-5H-pyrrolo[1,2-c]imidazol-1-yl)-N-thiazol-2-yl-acetamide] | 112 nM |
| O=C1CCC(N2Cc3c(OC4CCN(C(=O)CCCN5CCN(c6ccc(-c7ccc8cn(C(C(=O)Nc9nccs9)c9ncn%10c9CCC%10)nc8c7F)cn6)CC5)CC4)cccc3C2=O)C(=O)N1 (racemic) [Compound 62, (2RS)-2-(6,7-Dihydro-5H-pyrrolo[1,2-c]imidazol-1-yl)-2-[7-fluoro-6-[6-[4-[4-oxo-4-[4-[1-oxo-2-[(3RS)-2,6-dioxo-3-piperidyl]isoindolin-4-yl]oxy-1-piperidyl]butyl]piperazin-1-yl]-3-pyridyl]indazol-2-yl]-N-thiazol-2-yl-acetamide] | 19 nM |
| O=C1CCC(Nc2ccc(C3CCN(CC(=O)N4CCN(c5ccc(-c6ccc7cn(C(C(=O)Nc8nccs8)c8ncn9c8CCC9)nc7c6F)cn5)CC4)CC3)cc2)C(=O)N1 (racemic) [Compound 63, (2RS)-2-(6,7-Dihydro-5H-pyrrolo[1,2-c]imidazol-1-yl)-2-[7-fluoro-6-[6-[4-[2-[4-[4-[[(3RS)-2,6-dioxo-3-piperidyl]amino]phenyl]-1-piperidyl]acetyl]piperazin-1-yl]-3-pyridyl]indazol-2-yl]-N-thiazol-2-yl-acetamide] | 81 nM |
| O=C1CCC(Nc2ccc(C3CCN(CC(=O)N4CCN(c5ccc(-c6cc(F)c7c(c6)C(=O)N(C(C(=O)Nc6nccs6)c6ncn8c6CCC8)C7)cc5)CC4)CC3)cc2F)C(=O)N1 (stereo not shown) [Compound 13, 2-(6,7-dihydro-5H-pyrrolo[1,2-c]imidazol-1-yl)-2-[6-[4-[4-[2-[4-[4-[(2,6-dioxo-3-piperidyl)amino]-3-fluoro-phenyl]-1-piperidyl]acetyl]piperazin-1-yl]phenyl]-4-fluoro-1-oxo-isoindolin-2-yl]-N-thiazol-2-yl-acetamide] | 52 nM |
| O=C1CCC(Nc2cccc(C3CCN(CC(=O)N4CCN(c5ccc(-c6cc(F)c7c(c6)C(=O)N(C(C(=O)Nc6nccs6)c6ncn8c6CCC8)C7)cc5)CC4)CC3)c2)C(=O)N1 (stereo not shown) [Compound 16, 2-(6,7-dihydro-5H-pyrrolo[1,2-c]imidazol-1-yl)-2-(6-(4-(4-(2-(4-(3-((2,6-dioxopiperidin-3-yl)amino)phenyl)piperidin-1-yl)acetyl)piperazin-1-yl)phenyl)-4-fluoro-1-oxoisoindolin-2-yl)-N-(thiazol-2-yl)acetamide] | 92 nM |
| O=C1CCC(Nc2ccc(N3CCC(O)(CC(=O)N4CCN(c5ccc(-c6cc(F)c7c(c6)C(=O)N(C(C(=O)Nc6nccs6)c6ncn8c6CCC8)C7)cc5)CC4)CC3)c(C(F)(F)F)c2)C(=O)N1 (stereo not shown) [Compound 18, 2-(6,7-dihydro-5H-pyrrolo[1,2-c]imidazol-1-yl)-2-(6-(4-(4-(2-(1-(4-((2,6-dioxopiperidin-3-yl)amino)-2-(trifluoromethyl)phenyl)-4-hydroxypiperidin-4-yl)acetyl)piperazin-1-yl)phenyl)-4-fluoro-1-oxoisoindolin-2-yl)-N-(thiazol-2-yl)acetamide] | 46 nM |
| O=C1CC[C@@H](Nc2ccc(C3CCN(CC(=O)N4CCC(c5ccc(-c6cc(F)c7c(c6)C(=O)N(C(C(=O)Nc6nccs6)c6ncn8c6CCC8)C7)cc5)CC4)CC3)cc2)C(=O)N1 (stereo partly drawn) [Compound 23, 2-(6,7-dihydro-5H-pyrrolo[1,2-c]imidazol-1-yl)-2-(6-(4-(1-(2-(4-(4-(((R)-2,6-dioxopiperidin-3-yl)amino)phenyl)piperidin-1-yl)acetyl)piperidin-4-yl)phenyl)-4-fluoro-1-oxoisoindolin-2-yl)-N-(thiazol-2-yl)acetamide] | 33 nM |
| O=C1CCC(Nc2ccc(C3CCN(C(=O)CN4CCC(c5ccc(-c6cc(F)c7c(c6)C(=O)N(C(C(=O)Nc6nccs6)c6ncn8c6CCC8)C7)cc5)CC4)CC3)cc2)C(=O)N1 (stereo not shown) [Compound 26, 2-(6,7-dihydro-5H-pyrrolo[1,2-c]imidazol-1-yl)-2-[6-[4-[1-[2-[4-[4-[(2,6-dioxo-3-piperidyl)amino]phenyl]-1-piperidyl]-2-oxo-ethyl]-4-piperidyl]phenyl]-4-fluoro-1-oxo-isoindolin-2-yl]-N-thiazol-2-yl-acetamide] | 26 nM |
| O=C1CCC(Nc2ccc(C3CCN(CC(=O)N4CCC(Oc5ccc(-c6cc(F)c7c(c6)C(=O)N(C(C(=O)Nc6nccs6)c6ncn8c6CCC8)C7)cc5)CC4)CC3)cc2)C(=O)N1 (stereo not shown) [Compound 31, 2-(6,7-dihydro-5H-pyrrolo[1,2-c]imidazol-1-yl)-2-[6-[4-[[1-[2-[4-[4-[(2,6-dioxo-3-piperidyl)amino]phenyl]-1-piperidyl]acetyl]-4-piperidyl]oxy]phenyl]-4-fluoro-1-oxo-isoindolin-2-yl]-N-thiazol-2-yl-acetamide] | 32 nM |
| O=C1CCC(Nc2ccc(C3CCN(CC(=O)N4CCC(Oc5ccc(-c6cc(F)c7c(c6)C(=O)N(C(C(=O)Nc6nccs6)c6ncn8c6CCC8)C7)cc5)CC4)CC3)nc2)C(=O)N1 (stereo not shown) [Compound 36, 2-(6,7-dihydro-5H-pyrrolo[1,2-c]imidazol-1-yl)-2-(6-(4-((1-(2-(4-(5-((2,6-dioxopiperidin-3-yl)amino)pyridin-2-yl)piperidin-1-yl)acetyl)piperidin-4-yl)oxy)phenyl)-4-fluoro-1-oxoisoindolin-2-yl)-N-(thiazol-2-yl)acetamide] | 31 nM |

Molecules with a lower DC50, results first:

| DC50 | Structure (SMILES) |
| --- | --- |
| 18 nM | O=C1CC[C@@H](Nc2ccc(C3CCN(CC(=O)N4CCN(c5ccc(-c6cc(F)c7c(c6)C(=O)N(C(C(=O)Nc6nccs6)c6ncn8c6CCC8)C7)cc5)CC4)CC3)cc2)C(=O)N1 (stereo partly drawn) [Compound 7, 2-(6,7-dihydro-5H-pyrrolo[1,2-c]imidazol-1-yl)-2-[6-[4-[4-[2-[4-[4-[[(3R)-2,6-dioxo-3-piperidyl]amino]phenyl]-1-piperidyl]acetyl]piperazin-1-yl]phenyl]-4-fluoro-1-oxo-isoindolin-2-yl]-N-thiazol-2-yl-acetamide] |
| 17 nM | O=C1CCC(Nc2ccc(C3CCN(C(=O)CCCN4CCN(c5ccc(-c6cc(F)c7c(c6)C(=O)N(C(C(=O)Nc6nccs6)c6ncn8c6CCC8)C7)cc5)CC4)CC3)cc2)C(=O)N1 (racemic) [Compound 8, (2RS)-2-(6,7-Dihydro-5H-pyrrolo[1,2-c]imidazol-1-yl)-2-[4-fluoro-1-oxo-6-[4-[4-[4-oxo-4-[4-[4-[[(3RS)-2,6-dioxo-3-piperidyl]amino]phenyl]-1-piperidyl]butyl]piperazin-1-yl]phenyl]isoindolin-2-yl]-N-thiazol-2-yl-acetamide] |
| 13 nM | O=C1CCC(Nc2ccc(C3CCN(CC(=O)N4CC5(C4)CN(c4ccc(-c6cc(F)c7c(c6)C(=O)N(C(C(=O)Nc6nccs6)c6ncn8c6CCC8)C7)cc4)C5)CC3(F)F)cc2)C(=O)N1 (single isomer, unassigned) [Compound 51, 2-(6,7-dihydro-5H-pyrrolo[1,2-c]imidazol-1-yl)-2-(6-(4-(6-(2-(4-(4-((2,6-dioxopiperidin-3-yl)amino)phenyl)-3,3-difluoropiperidin-1-yl)acetyl)-2,6-diazaspiro[3.3]heptan-2-yl)phenyl)-4-fluoro-1-oxoisoindolin-2-yl)-N-(thiazol-2-yl)acetamide] |
| 7 nM | O=C1CCC(Nc2ccc(CC(=O)N3CCC(NC(=O)c4ccc(C#Cc5cc(F)c6c(c5)C(=O)N(C(C(=O)Nc5nccs5)c5ncn7c5CCC7)C6)cn4)CC3)cc2)C(=O)N1 (stereo not shown) [Compound 2, 5-[2-[2-[1-(6,7-dihydro-5H-pyrrolo[1,2-c]imidazol-1-yl)-2-oxo-2-(thiazol-2-ylamino)ethyl]-7-fluoro-3-oxo-isoindolin-5-yl]ethynyl]-N-[1-[2-[4-[(2,6-dioxo-3-piperidyl)amino]phenyl]acetyl]-4-piperidyl]pyridine-2-carboxamide] |
| 4 nM | O=C1CCC(Oc2ccc(N3CCN(CC(=O)N4CCC(NC(=O)c5ccc(C#Cc6cc(F)c7c(c6)C(=O)N(C(C(=O)Nc6nccs6)c6ncn8c6CCC8)C7)cn5)CC4)CC3)cc2)C(=O)N1 (racemic) [Compound 3, 5-[2-[7-Fluoro-3-oxo-2-[(1RS)-1-(6,7-dihydro-5H-pyrrolo[1,2-c]imidazol-1-yl)-2-oxo-2-(thiazol-2-ylamino)ethyl]isoindolin-5-yl]ethynyl]-N-[1-[2-[4-[4-[[(3RS)-2,6-dioxo-3-piperidyl]oxy]phenyl]piperazin-1-yl]acetyl]-4-piperidyl]pyridine-2-carboxamide] |
